Data from patent US20250206732A1, “COMPOUNDS AND METHODS FOR THE TARGETED DEGRADATION OF KRAS” (Arvinas Operations, Inc., priority 2022, published 2025).

Target: T1, AsPC-1 HiBiT-KRASG12D (Homo sapiens, UniProt P01116, G12D)
T1 construct: insert the HiBiT tag onto the N-terminus of one or more of the endogenous KRAS alleles; endogenous in cells; host or cells: AsPC-1 (ATCC CRL-1682), CRISPR-Cas9 knock-in clone, one tagged allele
Experiment: HiBiT degradation assay (G12D), AsPC-1 HiBiT-KRASG12D cells
Type: cell-based
Conditions: 24 hours treatment; for Dmax: ASPC1, AsPC-1 HiBiT-KRASG12D cells, maximum degradation observed; for DC50: AsPC-1 HiBiT-KRASG12D cells, HiBiT luminescence
How it was run: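 AsPC-1 cells (homozygous G12D) carrying a CRISPR knock-in N-terminal HiBiT tag on endogenous KRAS were treated with compounds for 24 hours at 37° C, 5% CO2, in triplicate. Alamar blue viability was read first, then cells were washed and lysed with Nano-Glo HiBiT reagent for 45 minutes before luminescence reading.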

T1 sequence (P01116 1-188 isoform P01116-2 G12D): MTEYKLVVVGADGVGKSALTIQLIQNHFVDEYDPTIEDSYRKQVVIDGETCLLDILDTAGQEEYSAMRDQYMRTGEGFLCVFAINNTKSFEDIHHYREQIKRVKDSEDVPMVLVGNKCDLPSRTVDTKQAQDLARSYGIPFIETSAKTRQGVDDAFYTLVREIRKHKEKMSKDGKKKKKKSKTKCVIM

SMILES | Dmax [%] | DC50 [µM]
C#Cc1c(F)ccc2cc(O)cc(-c3ncc4c(N5CC6CCC(C5)N6)nc(OCCN5CCC(CN6CCN(c7cc([C@H](C(=O)N8C[C@H](O)C[C@H]8C(=O)N[C@@H](C)c8ccc(-c9scnc9C)cc8)C(C)C)on7)CC6)CC5)nc4c3F)c12 [Compound 206, (2S,4R)-1-[(2R)-2-(3-{4-[(1-{2-[(4-{3,8-diazabicyclo[3.2.1]octan-3-yl}-7-(8-ethynyl-7-fluoro-3-hydroxynaphthalen-1-yl)-8-fluoropyrido[4,3-d]pyrimidin-2-yl)oxy]ethyl}piperidin-4-yl)methyl]piperazin-1-yl}-1,2-oxazol-5-yl)-3-methylbutanoyl]-4-hydroxy-N-[(1S)-1-[4-(4-methyl-1,3-thiazol-5-yl)phenyl]ethyl]pyrrolidine-2-carboxamide] | 80 to 100 | < 0.6
CCc1cccc2cc(O)cc(-c3ncc4c(N5CC6CCC(C5)N6)nc(OCCN5CC[C@@H]6CN(c7cc([C@H](C(=O)N8C[C@H](O)C[C@H]8C(=O)N[C@@H](C)c8ccc(-c9scnc9C)cc8)C(C)C)on7)C[C@@H]6C5)nc4c3F)c12 (relative stereo) [Compound 71, (2S,4R)-1-[(2R*)-2-{3-[(3aR**,7aR***)-5-{2-[(4-{3,8-diazabicyclo[3.2.1]octan-3-yl}-7-(8-ethyl-3-hydroxynaphthalen-1-yl)-8-fluoropyrido[4,3-d]pyrimidin-2-yl)oxy]ethyl}-octahydro-1H-pyrrolo[3,4-c]pyridin-2-yl]-1,2-oxazol-5-yl}-3-methylbutanoyl]-4-hydroxy-N-[(1S)-1-[4-(4-methyl-1,3-thiazol-5-yl)phenyl]ethyl]pyrrolidine-2-carboxamide] | 80 to 100 | < 0.6
CCc1cccc2cc(O)cc(-c3ncc4c(N5CC6CCC(C5)N6)nc(OC[C@@]56CCCN5[C@@H](COC(=O)N5CCN(c7cc(C(C(=O)N8C[C@H](O)C[C@H]8C(=O)N[C@@H](C)c8ccc(-c9scnc9C)cc8)C(C)C)on7)CC5)CC6)nc4c3F)c12 (single isomer, unassigned) [Compound 108, [(3R,7aS)-7a-{[(4-{3,8-diazabicyclo[3.2.1]octan-3-yl}-7-(8-ethyl-3-hydroxynaphthalen-1-yl)-8-fluoropyrido[4,3-d]pyrimidin-2-yl)oxy]methyl}-hexahydro-1H-pyrrolizin-3-yl]methyl 4-{5-[(2R*)-1-[(2S,4R)-4-hydroxy-2-{[(1S)-1-[4-(4-methyl-1,3-thiazol-5-yl)phenyl]ethyl]carbamoyl}pyrrolidin-1-yl]-3-methyl-1-oxobutan-2-yl]-1,2-oxazol-3-yl}piperazine-1-carboxylate] | 80 to 100 | < 0.6
Cc1ncsc1-c1ccc([C@H](C)NC(=O)[C@@H]2C[C@@H](O)CN2C(=O)[C@@H](c2cc(N3CCN(C(=O)OC[C@@H]4CC[C@@]5(COc6nc(N7CC8CCC(C7)N8)c7cnc(-c8cc(O)cc9cccc(Cl)c89)c(F)c7n6)CCCN45)CC3)no2)C(C)C)cc1 (relative stereo) [Compound 268, ((3S,7aR)-7a-(((4-((1R,5S)-3,8-diazabicyclo[3.2.1]octan-3-yl)-7-(8-chloro-3-hydroxynaphthalen-1-yl)-8-fluoropyrido[4,3-d]pyrimidin-2-yl)oxy)methyl)hexahydro-1H-pyrrolizin-3-yl)methyl 4-(5-((R)-1-((2S,4R)-4-hydroxy-2-(((S)-1-(4-(4-methylthiazol-5-yl)phenyl)ethyl)carbamoyl)pyrrolidin-1-yl)-3-methyl-1-oxobutan-2-yl)isoxazol-3-yl) piperazine-1-carboxylate] | 80 to 100 | < 0.6
Cc1ncsc1-c1ccc([C@H](C)NC(=O)[C@@H]2C[C@@H](O)CN2C(=O)[C@@H](c2cc(OC3CN(C(=O)OC[C@@H]4CC[C@@]5(COc6nc(N7CC8CCC(C7)N8)c7cnc(-c8cc(O)cc(Cl)c8C8CC8)c(F)c7n6)CCCN45)C3)no2)C(C)C)cc1 [Compound 306] | 80 to 100 | < 0.6
